Reference: patent US20240150293A1, “SPIROCYCLOHEXANE DERIVATIVES, PHARMACEUTICAL COMPOSITIONS CONTAINING THEM AND THEIR USES AS ANTI-APOPTOTIC INHIBITORS” (LES LABORATOIRES SERVIER, priority 2021, published 2024)
Where two headings read alike, the source gives them in different places.

Legend:
[1] = test system: H929 multiple myeloma tumor line; assay: In vitro cytotoxicity, MTT assay (Example B, Method A); assay type: cell-based; settings: H929 cells, 48 hours exposure, read-out: C50
Procedure: The cytotoxicity studies were carried out on the H929 multiple myeloma tumor line.
The cells are distributed onto microplates and exposed to the test compounds for 48 hours. The cell viability is then quantified by a colorimetric assay, the Microculture Tetrazolium Assay (Carmichael et al, Cancer Res. 1987, 47, 939-942).
The results are expressed in C50 which means concentration corresponding to […] of effect/inhibition.

[2] = biological target: Cy5-labelled Mcl1 (amino acids 171-321) C286S protein (UniProtKB Q07820) (Homo sapiens (Human), UniProt Q07820, C286S); assay: Inhibition of Mcl-1 by the fluorescence quenching assay (Example A, Method B); assay type: binding
Outline: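 Cy5-labelled Mcl1 171-321 C286S (1 nM) quenched by TQ5WS-labelled PUMA peptide (10, 20 or 400 nM); displacement raises fluorescence (Ex 620/Em 680 nm). Buffer 10 mM HEPES, 150 mM NaCl, 0.05% Tween 20, pH 7.4, 5% DMSO; 2 h at room temperature, 11-point curves, IC50 converted to Ki (cKi/eKi).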

Chain of Cy5-labelled Mcl1 (amino acids 171-321) C286S protein (Q07820 171-321 C286S): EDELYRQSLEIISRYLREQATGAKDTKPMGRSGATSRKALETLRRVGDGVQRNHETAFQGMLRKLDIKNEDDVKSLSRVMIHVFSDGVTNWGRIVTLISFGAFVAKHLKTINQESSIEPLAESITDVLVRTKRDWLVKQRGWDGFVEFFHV

| Ki [2] [nM] | Ki ([2]; Ki determined from IC50) [nM] | Compound | IC50 ([1]; Homo sapiens, NCI-H929, 48 h) [nM] | IC50 [1] [nM] |
| --- | --- | --- | --- | --- |
| 3.26 |  | C[C@@H](COc1ccnc2c1CCC[C@H]2F)C[C@H]1Cc2ccccc2[C@]12CC[C@@](Nc1cccc(Cl)c1)(C(=O)O)CC2 [Example 681, (1r,2′S,4S)-4-(3-chloroanilino)-2′-[(2R)-3-{[(8R)-8-fluoro-5,6,7,8-tetrahydroquinolin-4-yl]oxy}-2-methylpropyl]-2′,3′-dihydrospiro[cyclohexane-1,1′-indene]-4-carboxylic acid] | 1160 |  |
|  | 119 | O=C(O)[C@]1(Nc2cccc(Cl)c2)CC[C@]2(CC1)C(Br)=Cc1ccccc12 [Example 75, (1s,4s)-2′-bromo-4-(3-chloroanilino)spiro[cyclohexane-1,1′-indene]-4-carboxylic acid] | 30000 |  |
| 3.22 |  | Cc1cccc2c1C=C(C[C@@H](C)COc1ccnc3c1[C@H](C)CCC3)[C@]21CC[C@](Nc2cccc(Cl)c2)(C(=O)O)CC1 [Example 753, (1r,4R)-4-(3-chloroanilino)-4′-methyl-2′-[(2R)-2-methyl-3-{[(5R)-5-methyl-5,6,7,8-tetrahydroquinolin-4-yl]oxy}propyl]spiro[cyclohexane-1,1′-indene]-4-carboxylic acid] | 111 |  |
| 0.725 |  | C[C@@H](COc1ccnc2c1[C@H](C)CCC2)CC1=Cc2cc(Cl)ccc2[C@]12CC[C@@](Nc1cccc(Cl)c1)(C(=O)O)CC2 [Example 777, (1r,4R)-5′-chloro-4-(3-chloroanilino)-2′-[(2R)-2-methyl-3-{[(5R)-5-methyl-5,6,7,8-tetrahydroquinolin-4-yl]oxy}propyl]spiro[cyclohexane-1,1′-indene]-4-carboxylic acid] | 175 |  |
| 1.84 |  | C[C@@H]1CCCc2nccc(OCC(CF)CC3=Cc4ccccc4[C@]34CC[C@@](Nc3cccc(Cl)c3)(C(=O)O)CC4)c21 (single isomer, unassigned) [Example 514] |  | 320 |
| 1.52 |  | Cc1cc2c(cc1C)[C@]1(CC[C@@](Nc3cccc(Cl)c3)(C(=O)O)CC1)[C@@H](C[C@@H](C)COc1ccnc3ccsc13)C2 [Example 733, (1r,2′S,4S)-4-(3-chloroanilino)-5′,6′-dimethyl-2′-{(2R)-2-methyl-3-[(thieno[3,2-b]pyridin-7-yl)oxy]propyl}-2′,3′-dihydrospiro[cyclohexane-1,1′-indene]-4-carboxylic acid] | 211 |  |
| 8.76 |  | C[C@@H]1CCCc2nccc(OCC(F)CC3Cc4ccccc4[C@]34CC[C@@](Nc3cccc(Cl)c3)(C(=O)O)CC4)c21 (single isomer, unassigned) [Example 507] |  | 2240 |
| 100 |  | C[C@@H](COc1ccnc2c1[C@@H](CC(F)(F)F)CCC2)C[C@H]1Cc2ccccc2[C@]12CC[C@@](Nc1cccc(Cl)c1)(C(=O)O)CC2 [Example 694, (1r,2′S,4S)-4-(3-chloroanilino)-2′-[(2R)-2-methyl-3-{[(5R)-5-(2,2,2-trifluoroethyl)-5,6,7,8-tetrahydroquinolin-4-yl]oxy}propyl]-2′,3′-dihydrospiro[cyclohexane-1,1′-indene]-4-carboxylic acid] | 6290 |  |
| 0.737 |  | C[C@@H](COc1ccnc2c1[C@H](C)CCC2)C[C@@H]1Cc2ccc(COC3CCCO3)cc2[C@]12CC[C@@](Nc1cccc(Cl)c1)(C(=O)O)CC2 (stereo partly drawn) [Example 871, (1r,2′R,4R)-4-(3-chloroanilino)-2′-[(2R)-2-methyl-3-{[(5R)-5-methyl-5,6,7,8-tetrahydroquinolin-4-yl]oxy}propyl]-6′-{[(oxolan-2-yl)oxy]methyl}-2′,3′-dihydrospiro[cyclohexane-1,1′-indene]-4-carboxylic acid] | 114 |  |
| 1.85 |  | C[C@@H](COc1ccnc2c1C(F)CCC2)C[C@H]1Cc2ccccc2[C@]12CC[C@@](Nc1cccc(Cl)c1)(C(=O)O)CC2 (single isomer, unassigned) [Example 686] |  | 442 |
| 4.98 |  | C[C@@H]1CCCc2nccc(OCC(CC3=Cc4ccccc4[C@]34CC[C@@](Nc3cccc(Cl)c3)(C(=O)O)CC4)C(F)F)c21 (single isomer, unassigned) [Example 517] |  | 550 |

More lines, now with the values behind:

| Compound | Ki [2] [nM] | Ki ([2]; Ki determined from IC50) [nM] | IC50 ([1]; Homo sapiens, NCI-H929, 48 h) [nM] | IC50 [1] [nM] |
| --- | --- | --- | --- | --- |
| C[C@@H](COc1ccnc2c1[C@H](C)CC[C@@H]2F)C[C@H]1Cc2ccccc2[C@]12CC[C@@](Nc1cccc(Cl)c1)(C(=O)O)CC2 [Example 688, (1r,2′S,4S)-4-(3-chloroanilino)-2′-[(2R)-3-{[(5S,8R)-8-fluoro-5-methyl-5,6,7,8-tetrahydroquinolin-4-yl]oxy}-2-methylpropyl]-2′,3′-dihydrospiro[cyclohexane-1,1′-indene]-4-carboxylic acid] | 0.965 |  | 234 |  |
| CC[C@@H](COc1ccncc1)C[C@H]1Cc2ccccc2[C@]12CC[C@@](Nc1cccc(Cl)c1)(C(=O)O)CC2 [Example 544, (1r,2′S,4S)-4-(3-chloroanilino)-2′-[(2R)-2-{[(pyridin-4-yl)oxy]methyl}butyl]-2′,3′-dihydrospiro[cyclohexane-1,1′-indene]-4-carboxylic acid] | 22.4 |  | 8320 |  |
| C[C@@H](COc1ccnc2c1[C@H]1CCC[C@H]1C2)C[C@H]1Cc2ccccc2[C@]12CC[C@@](Nc1cccc(Cl)c1)(C(=O)O)CC2 (single isomer, unassigned) [Example 621, (1r,2′S,4S)-4-(3-chloroanilino)-2′-[(2R)-3-{[(4bR*,7aR*)-4b,5,6,7,7a,8-hexahydropentaleno[2,1-b]pyridin-4-yl]oxy}-2-methylpropyl]-2′,3′-dihydrospiro[cyclohexane-1,1′-indene]-4-carboxylic acid] | 37.6 |  |  | 2520 |
| COCCOc1ccc2c(c1)[C@]1(CC[C@@](Nc3cccc(Cl)c3)(C(=O)O)CC1)[C@H](C[C@@H](C)COc1ccnc3ccsc13)C2 [Example 729, (1r,2′R,4R)-4-(3-chloroanilino)-6′-(2-methoxyethoxy)-2′-{(2R)-2-methyl-3-[(thieno[3,2-b]pyridin-7-yl)oxy]propyl}-2′,3′-dihydrospiro[cyclohexane-1,1′-indene]-4-carboxylic acid] | 7.68 |  | 864 |  |
| C[C@@H]1CCCc2nccc(OCC(F)CC3Cc4ccccc4[C@]34CC[C@@](Nc3cccc(Cl)c3)(C(=O)O)CC4)c21 (single isomer, unassigned) [Example 510] | 1.51 |  |  | 252 |
| Cc1cncc(C)c1OC[C@H](C)C[C@H]1Cc2ccccc2[C@]12CC[C@@](Nc1cccc(Cl)c1)(C(=O)O)CC2 [Example 584, (1r,2′S,4S)-4-(3-chloroanilino)-2′-{(2R)-3-[(3,5-dimethylpyridin-4-yl)oxy]-2-methylpropyl}-2′,3′-dihydrospiro[cyclohexane-1,1′-indene]-4-carboxylic acid] | 7.03 |  | 1760 |  |
| Cc1cn(C[C@H](C)C[C@H]2Cc3ccccc3[C@]23CC[C@@](Nc2cccc(Cl)c2)(C(=O)O)CC3)c2c(c1=O)C(C)CCC2 (single isomer, unassigned) [Example 640] | 980 |  |  | 18100 |
| C[C@H]1Cc2nccc(OC[C@H](C)C[C@H]3Cc4ccccc4[C@]34CC[C@@](Nc3cccc(Cl)c3)(C(=O)O)CC4)c2[C@@H](C)C1 [Example 664, (1r,2′S,4S)-4-(3-chloroanilino)-2′-[(2R)-3-{[(5S,7R)-5,7-dimethyl-5,6,7,8-tetrahydroquinolin-4-yl]oxy}-2-methylpropyl]-2′,3′-dihydrospiro[cyclohexane-1,1′-indene]-4-carboxylic acid] | 52.5 |  | 3030 |  |
| C[C@@H](COc1ncnc2c1CCCC2)CC1=Cc2ccccc2[C@]12CC[C@@](Nc1cccc(Cl)c1)(C(=O)O)CC2 [Example 636, (1r,4R)-4-(3-chloroanilino)-2′-{(2R)-2-methyl-3-[(5,6,7,8-tetrahydroquinazolin-4-yl)oxy]propyl}spiro[cyclohexane-1,1′-indene]-4-carboxylic acid] | 16.2 |  | 3080 |  |
| Cc1ccc(N[C@]2(C(=O)O)CC[C@]3(CC2)c2ccccc2C[C@@H]3C[C@@H](C)COc2ccnc3c2[C@H](C)CCC3)cc1Cl [Example 709, (1r,2′S,4S)-4-(3-chloro-4-methylanilino)-2′-[(2R)-2-methyl-3-{[(5R)-5-methyl-5,6,7,8-tetrahydroquinolin-4-yl]oxy}propyl]-2′,3′-dihydrospiro[cyclohexane-1,1′-indene]-4-carboxylic acid] | 6.4 |  | 1010 |  |
| C[C@@H](COc1ccnc2ccsc12)C[C@@H]1Cc2cc(F)ccc2[C@]12CC[C@@](Nc1cccc(Cl)c1)(C(=O)O)CC2 [Example 738, (1r,2′R,4R)-4-(3-chloroanilino)-5′-fluoro-2′-{(2R)-2-methyl-3-[(thieno[3,2-b]pyridin-7-yl)oxy]propyl}-2′,3′-dihydrospiro[cyclohexane-1,1′-indene]-4-carboxylic acid] | 7.4 |  | 468 |  |
| C[C@@H](COc1ccnc2c1[C@H](C)CCC2)CC1=Cc2c(Cl)c(F)ccc2[C@]12CC[C@@](Nc1cccc(Cl)c1)(C(=O)O)CC2 [Example 745, (1r,4R)-4′-chloro-4-(3-chloroanilino)-5′-fluoro-2′-[(2R)-2-methyl-3-{[(5R)-5-methyl-5,6,7,8-tetrahydroquinolin-4-yl]oxy}propyl]spiro[cyclohexane-1,1′-indene]-4-carboxylic acid] | 1.58 |  | 66.4 |  |
| Cc1cn(C[C@H](C)C[C@H]2Cc3ccccc3[C@]23CC[C@@](Nc2cccc(Cl)c2)(C(=O)O)CC3)c2c(c1=O)C(C)CCC2 (single isomer, unassigned) [Example 639] | 37.2 |  | 12600 |  |
